In patent publication US12414932B2, “Arsinothricin and methods of treating infections using arsinothricin” (priority 2018, dated 2025):

Test system: Gram-negative and Gram-positive bacteria
Experiment: Bacterial resistance (growth inhibition) assay, environmental isolates
Type: cell-based
Conditions: M9 medium, 24 h; except B. gladioli GSRB05 and P. putida KT2440; PT as L-PT

CP(=O)(O)CCC(N)C(=O)O (racemic) [PT, phosphinothricin, reference compound]
concentration inhibiting each species to the same degree: 400 µM
